We go through three molecules from publication PMC10072326, “Promising anticancer agents based on 8-hydroxyquinoline hydrazone copper(II) complexes” (Frontiers in Chemistry, 2023).

The subject of one series is DNA-EB system. The series can be described thus: DNA-ethidium bromide fluorescence competition. The format is binding. The protocol: The fluorescence emission experiments were carried out in a Perkin Elmer LS 55 spectrofluorimeter. A pulsed Xenon lamp (50 Hz) provided the excitation light. A thermostated water bath recycler linked to the cell holder provided temperature control within ± 0.1 °C. The measurements were done in a 1000 µL quartz cell with an optical path length of 1.0 cm with the complexes solution added directly to the DNA-EB (ethidium bromide) solution in the cell. A glass syringe connected to a Mitutoyo micrometric screw added accurate volumes each time (one complete turn of the screw is 8.2 µL, 1/50 of a turn is the minimum possible addition).
Moreover, this complex reduces the emission of the EB-DNA system to ca. 40 % of its initial intensity with an interaction constant of (1.18 ± 0.03) × 10^4 M^−1 (Fig. S22, constant calculated with HypSpec2014 (28)).
Considering the results of the melting temperature assay, the DNA-EB fluorescence quenching was also used to test complex 7. […] The accessible fraction fa was determined as 0.26 and the interaction constant as (1.44 ± 0.02) ×10^5 M^−1 (HypSpec2014 (28)). As EB has a second mode of interaction with DNA due to electrostatic interactions on the external part of the biomolecule backbone (30), it is possible that the complexes are only being able to reach for this fraction. […]

Series [1] concerns A-375 cells. Briefly: Cytotoxicity with ROS scavenger NAC (SRB). The note with it: 10 mM NAC pre-treatment 2 h, co-treatment 72 h. The format is cell-based. From the text:
(§1) Additionally, to assess whether the ROS induction contributed to the cytotoxicity triggered by these complexes, we used a ROS scavenger, N-acetyl-cysteine (NAC), in combination with 1, 3, 5 or 8. […] Indeed, it is also possible that the cytotoxicity induced by 5 is not by ROS, despite the induction observed in Figure 7A.
(§2) Figure S27- Protective mechanism of NAC against Cu(II) complexes. Addition of NAC can protect cells from the cytotoxic effects of the Cu(II) complexes A-375 (A) and A-549 (B) cells were pre-treated with 10 mM of ROS scavenger N-acetylcysteine (NAC) for 2 h, then co-treated with freshly prepared Cu(II) complexes (1, 3, 5 and 8) for 72 h. Cell viability was measured via SRB assay (2 biological replicates, each done in duplicate). The error bars represent standard error of the mean. Student t-test was used for statistical analysis, *p<0.05, **p<0.01

Series [2] relates to A-549 cells. Briefly: Cytotoxicity with ROS scavenger NAC (SRB). The format is cell-based. The note with it: 10 mM NAC pre-treatment 2 h, co-treatment 72 h.
Text: as §1, §2

Series [3] relates to A-375 cells. The series can be described thus: γH2AX staining for DNA double-strand breaks. The format is cell-based. The protocol:
Indeed, we examined whether DNA nicks induced by the complexes on pure plasmid DNA would reflect in cell culture as increased DNA break formation. To test this, A-375 cells were stained using γH2AX, which is a common marker for DSBs (Figure 7B). […] For complex 1 the opposite effect was observed and despite its lower ability to induce ROS formation, the DSB were the highest among the group.
(§3) 5 × 10^4 number of A-375 and A-549 cells were seeded on 12-well plates, and the next day cells were treated with either copper complexes (calculated IC70 values) or cisplatin (15 μM). Following 48 h of treatment, cells were trypsinized, centrifuged and resuspended in PBS solution supplemented with 1% fetal bovine serum (FBS) (10^6 cells/mL).
The Muse ɣH2A.X Activation Dual Detection Kit (Luminex, MCH200101) protocols were followed with minor changes. 1 × 10^5 cells were mixed with ice-cold 1X Fixation Buffer at the same volume for 5 min. Cells were centrifuged (600 g, 5 min), and the pellet was suspended with 100 μL of ice-cold 1X Permeabilization Buffer (10 min, on ice), and centrifuged again. The cell pellet was resuspended with 50 μL of antibody mixture of (20X) Anti-phospho-Histone H2A.X (Ser139), Alexa Fluor 555 and (20X) Anti-H2A.X, PECy5 antibodies. Following 30 min of antibody staining, cells were centrifuged and resuspended with 1X Assay Buffer. DNA breaks were analysed with Muse Cell Analyzer (Merck Millipore).

The subject of series [4] is A-375 cells. The series can be described thus: Apoptosis by Annexin V/7-AAD and Caspase 3/7 flow cytometry. The class given is cell-based. Conditions: 48 h, Annexin-V and caspase 3/7. The protocol: To determine the mode of cell death, A-375 cells were incubated with the Cu complexes and cisplatin for 48 h and, induction of apoptosis was evaluated using both Annexin-V staining and activation of caspase 3/7 in response to drug treatment. While Annexin-V staining relies on the loss of plasma membrane asymmetry, caspases 3 and 7 are critical proteases, which are responsible for the cleavage of many cellular proteins. […] Similar results were obtained in A-549 cells (Supplementary Figure S28).
as §3
Annexin V & Dead Cell Kit (Luminex, MCH100105) protocols were followed for Annexin V activation. Briefly, 1 × 10^5 cells were stained with Annexin V and 7-AAD solution in a 1:1 ratio and incubated at room temperature for 20 min. The apoptotic cell population was evaluated with Muse Cell Analyzer (Merck Millipore).
Caspase-3/7 Kit (Luminex, MCH100108) protocols were followed for Caspase 3/7 staining. 2 × 10^5 cells were stained with 5 μL of Caspase 3/7 antibody (1:8 dilution in PBS) and incubated at room temperature for 30 min. Then, the cells were stained with 100 μL of 7-AAD antibody mixture (1:75 dilution with 1 × Assay Buffer) for 5 min. Caspase 3/7 and 7-AAD positivity were assessed with Muse Cell Analyzer (Merck Millipore).
On the technique in general: In flow cytometry, cells or beads pass a laser one at a time.

Series [5] deals with A-375 cells. The series can be described thus: ROS activation via dihydroethidium staining, flow cytometry. The note with it: 48 h. The class given is cell-based.
Text: (§4) Since reactive oxygen species appeared to be involved in the nicking activity of the complexes (Supplementary Figure S24), we investigated whether there was an increase in ROS formation in cells upon drug treatment. Dihydroethidium (DHE) is a reduced form of ethidium, after oxidation with superoxide (ROS), it is converted into 2-hydroxy ethidium, which is a chemical that emits red fluorescence and intercalates DNA. […] Similar results were obtained using A-549 cells, but with much milder induction of ROS except for 8, which remained high (Supplementary Figure S26).
as §3
(§5) Oxidative stress levels were assessed by Muse Oxidative Stress Kit (Luminex, MCH100111) using the same protocol as previously described (21).

A short description of series [6]: Thermodynamic solubility at pH 7.4. The class given is physicochemical. Conditions: Cu(II) complexes; pH 7.40; 20 mM HEPES; 25.0°C. How it is done:
Thermodynamic solubility (S) was measured for the new ligands, L^7 and L^8, since data for the rest of the series was previously reported (9), and for selected Cu(II) complexes: 1, 5 and 6. Solubility was measured for the saturated solutions in water at pH 7.40 in 20 mM HEPES at 25.0 ± 0.1 °C. The concentration was determined by UV-Vis spectrophotometry using the stock solutions of the compounds with known concentrations dissolved in 100% DMSO, 50% and 25% (v/v) DMSO/buffered aqueous solutions for the calibration.

The test system of series [7] is A-549 cells. The series can be described thus: ROS activation via dihydroethidium staining, flow cytometry. The format is cell-based.
Text: as §4, §3, §5

Structures are written as SMILES.

For the molecule `CC(=O)[O-].O=C(NN=Cc1ccc2cccc([O-])c2n1)c1ccccc1.[Cu+2]` [Complex 1, [Cu(HL^1)(AcO)]], the interaction constant result in the series on DNA-EB system (DNA-EB fluorescence quenching, HypSpec2014) was “(1.18 ± 0.03) × 10^4 M^−1”. Also, the “emission of the EB-DNA system, % of its initial intensity” value with DNA-EB system (titration 0 – 51.6 µM, HEPES pH 7.4) is reported as “ca. 40%”. In addition, the “effect of NAC on cytotoxicity” value in the series on A-375 cells [1] and in the series on A-549 cells [2] was “significantly reduced” throughout. Further, in the series with A-375 cells [3], the “DSB induction (γH2AX), in words” value is given as “highest levels of DSB induction”.
Turning to `[Cu+2].[O-]C(=NN=Cc1ccc2cccc([O-])c2n1)c1ccc(F)cc1` [Complex 3, [Cu(L^3)]3], the “induction of apoptosis, in words” value with A-375 cells [4] is on record as “performed well”. Further, the “effect of NAC on cytotoxicity” value with A-375 cells [1] and in the series with A-549 cells [2] was “significantly reduced” in each case. The ROS positivity in the series with A-375 cells [5] turned out to be 60%. In addition, the “thermodynamic solubility S 7.4” value in series [6] was below 1 µM.
Regarding `COc1ccc(C([O-])=NN=Cc2ccc3cccc([O-])c3n2)cc1.[Cu+2]` [Complex 5, [Cu(L^5)]3], the “induction of apoptosis, in words” value in the series on A-375 cells [4] is recorded as “triggered apoptosis only mildly”. Besides, in the series with A-375 cells [3], the “DSB induction (γH2AX), in words” value is listed as “highest levels of DSB induction”. Moreover, in the series on A-375 cells [3] (48 h), the “DNA breaks (γH2AX)” value was around 80%. This molecule also gave an ROS positivity in the series with A-375 cells [5] of around 80%. In the series on A-549 cells [7], the “ROS induction, in words” value is on record as “milder ROS induction”.
